Test results from PubChem BioAssay AID1845215 (Molecular Pharmacology Branch, DTP, NCI, 2023).
Activity calls are given as the source filed them. How the source made its calls: active means viability on the fitted dose curve at most 10% of control; inactive means the rest.

System: SW 1271 complex tumor spheroid viability
Assay: Anticancer human tumor SW 1271 cell line growth inhibition;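 on IC50: spheroids exposed to agents for seven days before readout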;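 on viability, T/C: spheroids exposed to agents for seven days before readout; percent of DMSO vehicle control luminescence so 100% = vehicle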
Conditions: for IC50: curve of first compound; for viability, T/C: stronger effect = lower value
Method in brief: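 Complex spheroids of malignant cells with endothelial cells and mesenchymal stem cells; agents alone or combined, from near clinical Cmax (or 10 microM if unknown) down in half-log steps, 0.25% DMSO final.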

[1] = second compound 1 µM, first compound 0.00949 µM
[2] = second compound 1 µM, first compound 0.03 µM
[3] = second compound 1 µM, first compound 0.0949 µM
[4] = second compound 1 µM, first compound 0.3 µM
[5] = second compound 1 µM, first compound 0.949 µM
[6] = second compound 1 µM, first compound 3 µM
[7] = second compound 3.16 µM, first compound 0.00949 µM
[8] = second compound 3.16 µM, first compound 0.03 µM
[9] = second compound 3.16 µM, first compound 0.0949 µM
[10] = second compound 3.16 µM, first compound 0.3 µM
[11] = second compound 3.16 µM, first compound 0.949 µM
[12] = second compound 3.16 µM, first compound 3 µM
[13] = second compound 10 µM, first compound 0.00949 µM
[14] = second compound 10 µM, first compound 0.03 µM
[15] = second compound 10 µM, first compound 0.0949 µM
[16] = second compound 10 µM, first compound 0.3 µM
[17] = second compound 10 µM, first compound 0.949 µM
[18] = second compound 10 µM, first compound 3 µM
[19] = second compound 31.6 µM, first compound 0.00949 µM
[20] = second compound 31.6 µM, first compound 0.03 µM
[21] = second compound 31.6 µM, first compound 0.0949 µM
[22] = second compound 31.6 µM, first compound 0.3 µM
[23] = second compound 31.6 µM, first compound 0.949 µM
[24] = second compound 31.6 µM, first compound 3 µM
[25] = second compound 100 µM, first compound 0.00949 µM
[26] = second compound 100 µM, first compound 0.03 µM
[27] = second compound 100 µM, first compound 0.0949 µM
[28] = second compound 100 µM, first compound 0.3 µM
[29] = second compound 100 µM, first compound 0.949 µM
[30] = second compound 100 µM, first compound 3 µM

| SMILES | IC50 (second compound 1 µM) [nM] | IC50 (second compound 3.16 µM) [nM] | IC50 (second compound 10 µM) [nM] | IC50 (second compound 31.6 µM) [nM] | IC50 (second compound 100 µM) [nM] | viability, T/C [3] [%] | viability, T/C [4] [%] | viability, T/C [5] [%] | viability, T/C [6] [%] | viability, T/C [10] [%] | viability, T/C [11] [%] | viability, T/C [12] [%] | viability, T/C [15] [%] | viability, T/C [16] [%] | viability, T/C [17] [%] | viability, T/C [18] [%] | viability, T/C [21] [%] | viability, T/C [22] [%] | viability, T/C [23] [%] | viability, T/C [24] [%] | also measured |
| --- | --- | --- | --- | --- | --- | --- | --- | --- | --- | --- | --- | --- | --- | --- | --- | --- | --- | --- | --- | --- | --- |
| CNCc1ccc(-c2cc(-c3nc(-c4ccc(S(=O)(=O)C(C)C)cc4)cnc3N)on2)cc1 + Cn1nnc2c(C(N)=O)ncn2c1=O | 213 | 170 | 185 | 174 | 52.4 | 98.8 | 29.5 | 7.14 | 0.1 | 23.8 | 7.34 | 0.12 | 89.7 | 20.8 | 5.82 | 0.11 | 75.5 | 17.5 | 37.5 | 0.15 | viability, T/C [1]: 105%; viability, T/C [2]: 102%; viability, T/C [7]: 109%; viability, T/C [8]: 106%; outcome [9]: inactive; viability, T/C [13]: 99.1%; viability, T/C [14]: 105%; viability, T/C [19]: 115%; viability, T/C [20]: 82.3%; viability, T/C [25]: 93.7%; viability, T/C [26]: 69.8%; viability, T/C [27]: 29.5%; viability, T/C [28]: 9.36%; viability, T/C [29]: 29.7%; viability, T/C [30]: 0.18% |
| Cn1ncnc1[C@H]1c2n[nH]c(=O)c3cc(F)cc(c23)N[C@@H]1c1ccc(F)cc1 + Cn1nnc2c(C(N)=O)ncn2c1=O | 9.72 | < 9.49 | < 9.49 | < 9.49 | < 9.49 | 23.4 | 26.2 | 25.8 | 20.7 | 22.1 | 28.2 | 22 | 25.6 | 28.6 | 29.5 | 20.1 | 29.3 | 28.5 | 30.5 | 22 | viability, T/C [1]: 50.5%; viability, T/C [2]: 28.1%; viability, T/C [7]: 41.6%; viability, T/C [8]: 25.2%; viability, T/C [9]: 29.2%; viability, T/C [13]: 32.9%; viability, T/C [14]: 25.5%; viability, T/C [19]: 27.1%; viability, T/C [20]: 27.1%; viability, T/C [25]: 29.8%; viability, T/C [26]: 29.9%; viability, T/C [27]: 32.1%; viability, T/C [28]: 32.8%; viability, T/C [29]: 28.7%; viability, T/C [30]: 19.9% |
| O=C(c1cc(Cc2n[nH]c(=O)c3ccccc23)ccc1F)N1CCN(C(=O)C2CC2)CC1 + Cn1nnc2c(C(N)=O)ncn2c1=O | 2200 | 2110 | 1640 | 443 | < 94.9 | 95.3 | 78.7 | 69.1 | 45.7 | 82.2 | 70.7 | 41 | 95.6 | 86.2 | 63.2 | 34.5 | 82.5 | 58.1 | 33.9 | 33.1 | viability, T/C (second compound 1 µM, first compound 9.49 µM): 24.4%; viability, T/C (second compound 1 µM, first compound 30 µM): 32.5%; viability, T/C [9]: 86.3%; viability, T/C (second compound 3.16 µM, first compound 9.49 µM): 33%; viability, T/C (second compound 3.16 µM, first compound 30 µM): 34.4%; viability, T/C (second compound 10 µM, first compound 9.49 µM): 34.4%; viability, T/C (second compound 10 µM, first compound 30 µM): 27%; viability, T/C (second compound 31.6 µM, first compound 9.49 µM): 33.5%; viability, T/C (second compound 31.6 µM, first compound 30 µM): 27.6%; viability, T/C [27]: 35.1%; viability, T/C [28]: 26.4%; viability, T/C [29]: 29%; viability, T/C [30]: 32.2%; viability, T/C (second compound 100 µM, first compound 9.49 µM): 28.8%; viability, T/C (second compound 100 µM, first compound 30 µM): 28.2% |
